Drawing on ChEMBL document CHEMBL3045457, “Synthesis and insecticidal activity of N-substituted (1,3-thiazole)alkyl sulfoximine derivatives” (2008), this text covers mortality for seven compounds.

This experiment relates to Myzus persicae. In words: Insecticidal activity against Myzus persicae (green peach aphid) in horsebean shoot assessed as mortality at 10 mg/l at 25 +/-1 degC treated for 2 secs measured after 16 hr. In kind it is functional.
Usually mortality stands for the share of the test organisms that died. For `CS(=O)(Cc1cnc(Br)s1)=NC#N` (configuration not stated), the mortality at 10 µg/mL was determined as 93%. Take `CCOc1nc(C(F)(F)F)c(CS(C)(=O)=NC#N)s1` (configuration not stated): the mortality at 10 µg/mL worked out at 68%.

Consider `CS(=O)(Cc1sc(Br)nc1C(F)(F)F)=NC#N` (configuration not stated), for which the mortality at 10 µg/mL was found to be 48%. `CS(=O)(Cc1sc(Cl)nc1C(F)(F)F)=NC#N` (configuration not stated): the mortality at 10 µg/mL turned out to be 100%.

With `Cc1nc(Cl)sc1CS(C)(=O)=NC#N` (configuration not stated), the mortality at 10 µg/mL came to 0%.

Regarding `CS(=O)(Cc1cnc(Cl)s1)=NC#N` (configuration not stated), the mortality at 10 µg/mL worked out at 75%. Turning to `CS(=O)(Cc1ccc(Cl)nc1)=NC#N` (configuration not stated), the mortality at 10 µg/mL stood at 100%.
